These results are taken from patent US20260335453A1, “ISOINDOLINONE-GLUTARIMIDE ANTIBODY CONJUGATES, AND USES THEREOF” (FIREFLY BIO, INC., priority 2023, published 2026).

Assay [1] concerns CAL51 cells. The assay can be described thus: Degradation assay evaluated by immunofluorescence staining, CAL51. It counts as cell-based, human. The conditions noted are these: for Dmax / DC50: Homo sapiens, CAL-51, CAL51, 6 h; for Dmax (%) CAL51: CAL51, 6 h. The method, then:
One day prior to treatment with compounds, black 96 well plates were coated with fibronectin (0.2 μg/ml in PBS) for 45 min at room temperature and subsequently washed with PBS. CAL-51 or SKBR3 cells were seeded at 30K cells/well (1001) and incubated overnight at 37° C. whereafter compounds were added reaching indicated concentrations. 6 h after treatment the medium was removed, cells were washed with PBS and fixed with 10% formalin for 20 mins at room temperature. Following two PBS washes (150 μl), cells were permeabilized in 0.1% Triton X-100 in PBS for 8 mins at room temperature and subsequently washed again twice with PBS. Cells were blocked thereafter with 1% BSA in PBS for 45 mins. Primary antibody was diluted in blocking buffer and incubated with the cells overnight at 4° C. After three washes with PBS, cells were incubated with secondary antibody for 1 h at RT, washed and subsequently images were taken on an Operetta High-Content Imager.
For the determination of the DC50, a custom algorithm implemented in the PerkinElmer image analysis software Harmony-Acapella® was used.

Assay [2] deals with CAL51 cells. In words: Cell proliferation (Cell Titer Glow), CAL51. It counts as cell-based. As to conditions: Homo sapiens, CAL-51; IG compounds, cell killing, 72 h. The protocol:
Exemplary isoindolinone-glutarimide (IG) compounds of Table 1a, 1b and 1c were prepared and characterized according to the Examples herein. Certain exemplary IG compounds of(Table 1a were tested for their effects in inhibiting cellular proliferation, including CAL1 WSU-DLCL2, NCI-N87 and SKBR3. CAL51 is a human breast adenocarcinoma cell line with triple-negative status for expression of estrogen, progesterone and HER2 receptors. WSU-DLCL2 is a human B-Cell non-Hodgkin lymphoma cell line that expresses high levels of CD22. NCI-N87 is a human epithelial cell line established from a gastric carcinoma; SKBR3 is a human epithelial cell line established from a breast adenocarcinoma; both NCI-N87 and SKBR3 cell lines express high levels of HER2 receptor. […]
One day prior to treatment with compounds or IGAC, cells were plated in white 96-well plates (SKBR: 3000 cells/well; CAL-51: 4000 cells/well). Compounds or ADCs were added in a serial-dilution manner reaching the indicated concentrations. Plates were incubated at 37 degrees for 96h (ADCs) or 72h (compounds) whereafter a 1:10 dilution of Cell Titer Glow was used to measure relative cell numbers after 10 min of incubation at room temperature.
A general note: Cellular ATP, detected with luciferase, serves as a proxy for viable cell number.

For orientation: Dmax means the greatest extent of degradation seen. High values mean a fuller loss of target, low ones a partial loss of target. What is called IC50 is the concentration that inhibits the measured activity by half. In general, DC50 refers to the concentration at which degradation of the target reaches its halfway point.

`CNCCOCCc1ccc(NC(=O)OCc2ccc3c(c2)CN(C2CCC(=O)NC2=O)C3=O)cc1Cl` (centres unmarked) [IG-4] returned a Dmax with CAL51 cells [1] of 17.3 ± 0.107%. Besides, the IC50 in the assay with CAL51 cells [2] was over 10 µM.
For the molecule `CNCCOCCc1ccc(NC(=O)NCc2ccc3c(c2)CN(C2CCC(=O)NC2=O)C3=O)cc1C(C)C` (centres unmarked) [IG-5], in the assay on CAL51 cells [1], it took 1410 nM to reach half-maximal degradation (DC50) and the Dmax amounted to 64.6 ± 2.56%. The half-inhibitory concentration (IC50) in the assay with CAL51 cells [2] came out at 6.86 µM.
On to `CNCCOCCc1ccc(NC(=O)NCc2ccc3c(c2)CN(C2CCC(=O)NC2=O)C3=O)cc1SC` (centres unmarked) [IG-6, 1-((2-(2,6-dioxopiperidin-3-yl)-1-oxoisoindolin-5-yl)methyl)-3-(4-(2-(2-(methylamino)ethoxy)ethyl)-3-(methylthio)phenyl)urea], for which, in the assay with CAL51 cells [1], the 50% degradation concentration (DC50) is 834 ± 125 nM and the Dmax is 73.3 ± 9.98%. In the assay with CAL51 cells [2], the IC50 worked out at 7.51 µM.
In the case of `O=C1CCC(N2C(=O)c3ccc(NS(=O)(=O)c4ccccc4OC(F)(F)F)cc3C2=O)C(=O)N1` (centres unmarked) [IG-9, N-(2-(2,6-dioxopiperidin-3-yl)-1,3-dioxoisoindolin-5-yl)-2-(trifluoromethoxy)benzenesulfonamide], in the assay with CAL51 cells [1], it took 157 ± 46.5 nM to reach half-maximal degradation (DC50) and the Dmax amounted to 83.8 ± 5.5%. This molecule also yielded an IC50 with CAL51 cells [2] of 6.49 µM.
`Cc1ccc(NC(=O)CCc2ccc3c(c2)CN(C2CCC(=O)NC2=O)C3=O)cc1O` (centres unmarked) [IG-10, 3-(2-(2,6-dioxopiperidin-3-yl)-1-oxoisoindolin-5-yl)-N-(3-hydroxy-4-methylphenyl)propanamide] yielded a Dmax in the assay with CAL51 cells [1] of 25.1 ± 3.27%. For the same molecule, the IC50 with CAL51 cells [2] is over 10 µM.
For `O=C1CCC(N2Cc3cc(NS(=O)(=O)c4ccccc4OC(F)(F)F)ccc3C2=O)C(=O)N1` (centres unmarked) [IG-11, N-(2-(2,6-dioxopiperidin-3-yl)-1-oxoisoindolin-5-yl)-2-(trifluoromethoxy) benzenesulfonamide], in that order: 42 ± 9.54% and over 10 µM.
In the assay with CAL51 cells [1], `Cc1ccc(NC(=O)OCc2ccc3c(c2)CN(C2CCC(=O)NC2=O)C3=O)cc1O` (centres unmarked) [IG-13, (2-(2,6-dioxopiperidin-3-yl)-1-oxoisoindolin-5-yl)methyl (3-hydroxy-4-methylphenyl)carbamate] registered a Dmax of 38.8 ± 1.98%. Moreover, the IC50 in the assay with CAL51 cells [2] was 3.04 µM.
Take `CNCCOCCc1ccc(NC(=O)NCc2ccc3c(c2)CN(C2CCC(=O)NC2=O)C3=O)cc1O` (centres unmarked) [IG-14, 1-((2-(2,6-dioxopiperidin-3-yl)-1-oxoisoindolin-5-yl)methyl)-3-(3-hydroxy-4-(2-(2-(methylamino)ethoxy)ethyl)phenyl)urea]: the greatest degradation seen (Dmax) with CAL51 cells [1] came out at 22.7 ± 3.34%. The IC50 with CAL51 cells [2] was over 10 µM.
As to `Cc1ccc(NC(=O)NCc2ccc3c(c2)C(=O)N(C2CCC(=O)NC2=O)C3)cc1Cl` (centres unmarked) [IG-16, 1-(3-chloro-4-methylphenyl)-3-((2-(2,6-dioxopiperidin-3-yl)-3-oxoisoindolin-5-yl)methyl)urea], in the assay with CAL51 cells [1], it took 174 ± 106 nM to reach half-maximal degradation (DC50) and the Dmax amounted to 91.7 ± 5.22%. The molecule further yielded an IC50 in the assay with CAL51 cells [2] of 0.444 µM.
Consider `O=C1CCC(N2Cc3c(Nc4ccnc(Cc5ccc6c(c5)CCC6)n4)cccc3C2=O)C(=O)N1` (centres unmarked) [IG-19, 3-(4-((2-((2,3-dihydro-1H-inden-5-yl)methyl)pyrimidin-4-yl)amino)-1-oxoisoindolin-2-yl)piperidine-2,6-dione], for which the “Dmax (%) CAL51” value with CAL51 cells [1] is listed as “Not active”. This molecule registered an IC50 with CAL51 cells [2] of over 10 µM.
The like results for `CNCCOCCc1ccc(NC(=O)NCc2ccc3c(c2)C(=O)N(C2CCC(=O)NC2=O)C3)cc1Cl` (centres unmarked) [IG-20, 1-(3-chloro-4-(2-(2-(methylamino)ethoxy)ethyl)phenyl)-3-((2-(2,6-dioxopiperidin-3-yl)-3-oxoisoindolin-5-yl)methyl)urea] were, in that order, “Not active” and over 10 µM.
`Cc1ccc(NC(=O)NCc2cc(O)c3c(c2)CN(C2CCC(=O)NC2=O)C3=O)cc1Cl` (centres unmarked) [IG-24, 1-(3-chloro-4-methylphenyl)-3-((2-(2,6-dioxopiperidin-3-yl)-7-hydroxy-1-oxoisoindolin-5-yl)methyl)urea]: the IC50 in the assay on CAL51 cells [2] worked out at 0.412 µM.
Consider `CC(C)(C)c1cccc(NC(=O)NCc2ccc3c(c2O)CN(C2CCC(=O)NC2=O)C3=O)c1` (centres unmarked) [IG-25, 1-(3-(tert-butyl)phenyl)-3-((2-(2,6-dioxopiperidin-3-yl)-4-hydroxy-1-oxoisoindolin-5-y1)methyl)urea], for which, in the assay with CAL51 cells [1], the DC50 is 28.9 nM and the Dmax was 89.6%. Half-maximal inhibition with CAL51 cells [2] (IC50) was put at 0.0432 µM.
Consider `Cc1ccc(NC(=O)NCc2ccc3c(c2O)CN(C2CCC(=O)NC2=O)C3=O)cc1O` (centres unmarked) [IG-27, 1-((2-(2,6-dioxopiperidin-3-yl)-4-hydroxy-1-oxoisoindolin-5-yl)methyl)-3-(3-hydroxy-4-methylphenyl)urea], for which the 50% inhibitory concentration (IC50) with CAL51 cells [2] is over 10 µM.
The same measure, in the same setting: the value for `Nc1ccc2c(c1OS(=O)(=O)c1ccccc1OC(F)(F)F)C(=O)N(C1CCC(=O)NC1=O)C2=O` (centres unmarked) [IG-29, 5-amino-2-(2,6-dioxopiperidin-3-yl)-1,3-dioxoisoindolin-4-yl 2-(trifluoromethoxy)benzenesulfonate] was over 10 µM; that for `Nc1ccc(OS(=O)(=O)c2ccccc2OC(F)(F)F)c2c1C(=O)N(C1CCC(=O)NC1=O)C2=O` (centres unmarked) [IG-30, 7-amino-2-(2,6-dioxopiperidin-3-yl)-1,3-dioxoisoindolin-4-yl 2-(trifluoromethoxy)benzenesulfonate] was over 10 µM.
The same measure, in the same setting: the value for `O=C1CCC(N2Cc3cc(CNC(=O)Nc4ccc(CCOCCN5CCOCC5)c(O)c4)ccc3C2=O)C(=O)N1` (centres unmarked) [IG-32, 1-((2-(2,6-dioxopiperidin-3-yl)-1-oxoisoindolin-5-yl)methyl)-3-(3-hydroxy-4-(2-(2-morpholinoethoxy)ethyl)phenyl)urea] was over 10 µM.
Same read-out and setting: the value for `Cc1ccc(NC(=O)OCc2ccc3c(c2O)CN(C2CCC(=O)NC2=O)C3=O)cc1Cl` (centres unmarked) [IG-33, (2-(2,6-dioxopiperidin-3-yl)-4-hydroxy-1-oxoisoindolin-5-yl)methyl (3-chloro-4-methylphenyl)carbamate] was over 10 µM; that for `O=C1CCC(N2C(=O)c3cc(NS(=O)(=O)c4ccccc4OC(F)(F)F)cc(O)c3C2=O)C(=O)N1` (centres unmarked) [IG-34, N-(2-(2,6-dioxopiperidin-3-yl)-7-hydroxy-1,3-dioxoisoindolin-5-yl)-2-(trifluoromethoxy)benzenesulfonamide] was over 10 µM; that for `Cc1ccc(NC(=O)NCc2ccc3nnn(C4CCC(=O)NC4=O)c(=O)c3c2)cc1O` (centres unmarked) [IG-35, 1-((3-(2,6-dioxopiperidin-3-yl)-4-oxo-3,4-dihydrobenzo[d][1,2,3]triazin-6-yl)methyl)-3-(3-hydroxy-4-methylphenyl)urea] was over 10 µM.
`O=C1CCC(N2Cc3c(ccc(CNC(=O)Nc4cccc(S(F)(F)(F)(F)F)c4)c3O)C2=O)C(=O)N1` (centres unmarked) [IG-43, 1-((2-(2,6-dioxopiperidin-3-yl)-4-hydroxy-1-oxoisoindolin-5-yl)methyl)-3-(3-(pentafluoro-l6-sulfaneyl)phenyl)urea] showed an IC50 in the assay with CAL51 cells [2] of 0.472 µM.
On the same count and under the same terms, the same measure for `O=C1CCC(N2Cc3c(Nc4ccnc(Nc5ccc6c(c5)CCC6)n4)ccc(O)c3C2=O)C(=O)N1` (centres unmarked) [IG-44, 3-(4-((2-((2,3-dihydro-1H-inden-5-yl)amino)pyrimidin-4-yl)amino)-7-hydroxy-1-oxoisoindolin-2-yl)piperidine-2,6-dione]: over 10 µM; for `CNc1cc2c(cc1CNC(=O)Nc1ccc(C)c(Cl)c1)CN(C1CCC(=O)NC1=O)C2=O` (centres unmarked) [IG-45, 1-(3-chloro-4-methylphenyl)-3-((2-(2,6-dioxopiperidin-3-yl)-6-(methylamino)-1-oxoisoindolin-5-yl)methyl)urea]: over 10 µM; for `O=C1CCC(N2C(=O)c3cc(O)c(NS(=O)(=O)c4ccccc4OC(F)(F)F)cc3C2=O)C(=O)N1` (centres unmarked) [IG-46, N-(2-(2,6-dioxopiperidin-3-yl)-6-hydroxy-1,3-dioxoisoindolin-5-yl)-2-(trifluoromethoxy)benzenesulfonamide]: over 10 µM.
The same measure, in the same setting: the value for `O=C1CCC(N2Cc3c(ccc(CNC(=O)Nc4ccc(Br)c(Br)c4)c3O)C2=O)C(=O)N1` (centres unmarked) [IG-47, 1-(3,4-dibromophenyl)-3-((2-(2,6-dioxopiperidin-3-yl)-4-hydroxy-1-oxoisoindolin-5-yl)methyl)urea] was 1.08 µM.
For the molecule `CC(C)(C)c1ccc(NC(=O)NCc2ccc3c(c2O)CN(C2CCC(=O)NC2=O)C3=O)cc1Cl` (centres unmarked) [IG-48, 1-(4-(tert-butyl)-3-chlorophenyl)-3-((2-(2,6-dioxopiperidin-3-yl)-4-hydroxy-1-oxoisoindolin-5-yl)methyl)urea], the concentration for half-maximal inhibition (IC50) in the assay on CAL51 cells [2] is 0.05 µM.
As to `CNCCOCCc1ccc(NC(=O)NCc2ccc3c(c2O)CN(C2CCC(=O)NC2=O)C3=O)cc1Cl` (centres unmarked) [IG-53, 1-(3-chloro-4-(2-(2-(methylamino)ethoxy)ethyl)phenyl)-3-((2-(2,6-dioxopiperidin-3-yl)-4-hydroxy-1-oxoisoindolin-5-yl)methyl)urea], in the assay with CAL51 cells [2], the IC50 is over 30 µM.
